Results taken from PubChem BioAssay (NCI).
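In this assay, cells in 96-well plates receive the compound at five concentrations for 48 hours. Endpoints are linearly interpolated between the surrounding concentrations. TGI is the concentration that stops growth completely.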

What was measured:
Assay in all cases: NCI anticancer screen, dose series, 48 h
ACHN renal = test system: ACHN renal
SK-OV-3 ovarian = test system: SK-OV-3 ovarian
PC-3 prostate = test system: PC-3 prostate
SF-268 CNS = test system: SF-268 CNS
MDA-MB-231 breast = test system: MDA-MB-231 breast
SNB-19 CNS = test system: SNB-19 CNS
M14 melanoma = test system: M14 melanoma
K-562 leukemia = test system: K-562 leukemia
HT29 colon = test system: HT29 colon
A549 NSCLC = test system: A549 NSCLC
RPMI-8226 leukemia = test system: RPMI-8226 leukemia
MCF7 breast = test system: MCF7 breast
RXF 393 renal = test system: RXF 393 renal
CCRF-CEM leukemia = test system: CCRF-CEM leukemia
EKVX NSCLC = test system: EKVX NSCLC
786-0 renal = test system: 786-0 renal
T-47D breast = test system: T-47D breast
OVCAR-3 ovarian = test system: OVCAR-3 ovarian
SF-295 CNS = test system: SF-295 CNS
MALME-3M melanoma = test system: MALME-3M melanoma
SW-620 colon = test system: SW-620 colon
HCT-116 colon = test system: HCT-116 colon
OVCAR-4 ovarian = test system: OVCAR-4 ovarian
SK-MEL-5 melanoma = test system: SK-MEL-5 melanoma
NCI-H460 lung = test system: NCI-H460 lung
HOP-92 NSCLC = test system: HOP-92 NSCLC
SK-MEL-28 melanoma = test system: SK-MEL-28 melanoma
HCC-2998 colon = test system: HCC-2998 colon
SN12C renal = test system: SN12C renal
MDA-MB-435 = test system: MDA-MB-435
DU-145 prostate = test system: DU-145 prostate
CAKI-1 renal = test system: CAKI-1 renal
HOP-62 NSCLC = test system: HOP-62 NSCLC
SF-539 CNS = test system: SF-539 CNS
HCT-15 colon = test system: HCT-15 colon
COLO 205 colon = test system: COLO 205 colon
NCI/ADR-RES ovarian = test system: NCI/ADR-RES ovarian
OVCAR-8 ovarian = test system: OVCAR-8 ovarian
TK-10 renal = test system: TK-10 renal
UACC-257 melanoma = test system: UACC-257 melanoma
MOLT-4 leukemia = test system: MOLT-4 leukemia
U251 CNS = test system: U251 CNS
UO-31 renal = test system: UO-31 renal
NCI-H226 lung = test system: NCI-H226 lung
HS 578T breast = test system: HS 578T breast
BT-549 breast = test system: BT-549 breast
NCI-H23 lung = test system: NCI-H23 lung
HL-60(TB) leukemia = test system: HL-60(TB) leukemia
MDA-N = test system: MDA-N
OVCAR-5 ovarian = test system: OVCAR-5 ovarian
LOX IMVI melanoma = test system: LOX IMVI melanoma
UACC-62 melanoma = test system: UACC-62 melanoma
SK-MEL-2 melanoma = test system: SK-MEL-2 melanoma
SNB-75 CNS = test system: SNB-75 CNS
A498 renal = test system: A498 renal
KM12 colon = test system: KM12 colon

Measured: TGI

COc1ccc(OCc2nc3cc(C(F)(F)F)ccc3nc2-c2ccccc2)cc1
> 100 µM: all assays above
